Laboratory results as given in paper PMC4890880 (ACS infectious diseases, 2016).
Read-outs that look alike come from different tables or passages of the source.

Tests used:
[1] = tested on: HepG2-A16-CD81EGFP cells; assay: cells; settings: Homo sapiens, HepG2, read-out: % inhibition
[2] = tested on: HepG2-A16-CD81EGFP cells; assay: cells; settings: Homo sapiens, HepG2, read-out: % inhibition; remark: listed apart in the source
[3] = tested on: Plasmodium berghei (Pb-Luc) exoerythrocytic-stage parasites; assay: microbe, parasite or virus in culture
[4] = read-out: Inhibition% @ 50 uM rep1
[5] = read-out: Inhibition% @ 50 uM rep2

CCCc1c(CC)c(=N)c2ccccc2n1C [MMV008416]
inhibition at 50 µM [1]: 83.1% | inhibition at 50 µM [2]: 84% | inhibition at 50 µM [3, 4]: 101% | inhibition at 50 µM [3, 5]: 104%

CCN(CC)S(=O)(=O)c1ccc(-c2csc(Nc3ccc(C)c(C)c3)n2)cc1 [MMV009108]
inhibition at 50 µM [1]: 72.2% | inhibition at 50 µM [2]: 80.9% | inhibition at 50 µM [3, 4]: 97% | inhibition at 50 µM [3, 5]: 96%

Cc1cc(Nc2ccc3ccccc3c2)n2ncnc2n1 [MMV011099]
inhibition at 50 µM [1]: 88.4% | inhibition at 50 µM [2]: 86.3% | inhibition at 50 µM [3, 4]: 101% | inhibition at 50 µM [3, 5]: 102%

Cc1cc(Nc2ccc(Cl)cc2)n2nc(C(F)(F)F)nc2n1 [MMV011256]
inhibition at 50 µM [1]: 37.6% | inhibition at 50 µM [2]: 37.8% | inhibition at 50 µM [3, 4]: 102% | inhibition at 50 µM [3, 5]: 104%

COc1ccc(C(=O)Nc2nonc2-c2ccc(OC)c(OC)c2)cc1Cl [MMV011567]
inhibition at 50 µM [1]: -1.34% | inhibition at 50 µM [2]: 2.69% | inhibition at 50 µM [3, 4]: 58% | inhibition at 50 µM [3, 5]: 80%

Oc1ccccc1CN1CCN(C(c2ccccc2)c2ccccc2)CC1 [MMV011795]
inhibition at 50 µM [1]: 77.8% | inhibition at 50 µM [2]: 51.4% | inhibition at 50 µM [3, 4]: 100% | inhibition at 50 µM [3, 5]: 102%

COc1cccc(-c2nn(C)c3sc(C(=O)NCCN4CCN(c5ccccc5F)CC4)cc23)c1 [MMV019064]
inhibition at 50 µM [1]: 53.8% | inhibition at 50 µM [2]: 82.3% | inhibition at 50 µM [3, 4]: 103% | inhibition at 50 µM [3, 5]: 104%

Cc1cccc(Nc2nc(N)c3ccccc3n2)c1 [MMV019110]
inhibition at 50 µM [1]: 91.6% | inhibition at 50 µM [2]: 92% | inhibition at 50 µM [3, 4]: 99% | inhibition at 50 µM [3, 5]: 98%

CCN(Cc1ccccc1)C1CCN(Cc2cc(Br)ccc2O)CC1 [MMV019127]
inhibition at 50 µM [1]: 82.2% | inhibition at 50 µM [2]: 86% | inhibition at 50 µM [3, 4]: 102% | inhibition at 50 µM [3, 5]: 104%

CCOc1cccc(C(=O)Nc2ccc(-c3nc4ccccc4[nH]3)cc2)c1 [MMV019202]
inhibition at 50 µM [1]: 76.2% | inhibition at 50 µM [2]: 88.4% | inhibition at 50 µM [3, 4]: 101% | inhibition at 50 µM [3, 5]: 100%

COc1ccc(-n2ccnc2SCC(=O)Nc2cc(C)ccc2C)c(OC)c1 [MMV019258]
inhibition at 50 µM [1]: 63.1% | inhibition at 50 µM [2]: 80.6% | inhibition at 50 µM [3, 4]: 102% | inhibition at 50 µM [3, 5]: 102%

CCC1(C)CC(CCNCc2ccccc2O)(c2ccc(C)cc2)CCO1 (stereo not drawn) [MMV019406]
inhibition at 50 µM [1]: 96.7% | inhibition at 50 µM [2]: 98.3% | inhibition at 50 µM [3, 4]: 102% | inhibition at 50 µM [3, 5]: 102%

O=C(Nc1ccc(N2CCCCC2)c(Cl)c1)c1ccc(Br)o1 [MMV019700]
inhibition at 50 µM [1]: 97.5% | inhibition at 50 µM [2]: 99% | inhibition at 50 µM [3, 4]: 104% | inhibition at 50 µM [3, 5]: 106%

Fc1ccc2[nH]c3c(NCCCN4CCOCC4)ncnc3c2c1 [MMV019871]
inhibition at 50 µM [1]: 58.8% | inhibition at 50 µM [2]: 74.2% | inhibition at 50 µM [3, 4]: 103% | inhibition at 50 µM [3, 5]: 103%

O=C(NC1CCN(Cc2ccccc2)CC1)c1cc(-c2ccncc2)nc2ccc(Cl)cc12 [MMV020275]
inhibition at 50 µM [1]: 89.1% | inhibition at 50 µM [2]: 90.6% | inhibition at 50 µM [3, 4]: 52% | inhibition at 50 µM [3, 5]: 39%

CC1CN(C(=O)c2sc3ccccc3c2Cl)CC(C)O1 (stereo not drawn) [MMV020492]
inhibition at 50 µM [1]: 25% | inhibition at 50 µM [2]: 23.2% | inhibition at 50 µM [3, 4]: 44% | inhibition at 50 µM [3, 5]: 44%

CNCCCNc1ccnc2cc(Cl)ccc12 [MMV020500]
inhibition at 50 µM [1]: 101% | inhibition at 50 µM [2]: 101% | inhibition at 50 µM [3, 4]: 104% | inhibition at 50 µM [3, 5]: 105%

CC1CCN(Cc2ccc(NC(=O)c3cc4ccc5cccnc5c4[nH]3)cc2)CC1 [MMV020549]
inhibition at 50 µM [1]: 95.4% | inhibition at 50 µM [2]: 96.7% | inhibition at 50 µM [3, 4]: 104% | inhibition at 50 µM [3, 5]: 106%

COc1ccc(-c2nonc2NC(=O)c2cccc(Cl)c2)cc1OC [MMV020660]
inhibition at 50 µM [1]: 92% | inhibition at 50 µM [2]: 93.3% | inhibition at 50 µM [3, 4]: 104% | inhibition at 50 µM [3, 5]: 106%

Oc1ccccc1CNCC12CC3CC(CC(C3)C1)C2 [MMV020788]
inhibition at 50 µM [1]: 94% | inhibition at 50 µM [2]: 95.9% | inhibition at 50 µM [3, 4]: 102% | inhibition at 50 µM [3, 5]: 103%

COc1ccc(Br)cc1C1Nc2ccc3ccccc3c2C2=C1C(=O)CC(c1ccccc1)C2 (stereo not drawn) [MMV020885]
inhibition at 50 µM [1]: 69.1% | inhibition at 50 µM [2]: 75.1% | inhibition at 50 µM [3, 4]: 102% | inhibition at 50 µM [3, 5]: 102%

COc1cc(SC)ccc1C(=O)N1CCCC(C)C1 (stereo not drawn) [MMV056726]
inhibition at 50 µM [1]: 65.4% | inhibition at 50 µM [2]: 67.3% | inhibition at 50 µM [3, 4]: 86% | inhibition at 50 µM [3, 5]: 93%

CCOc1ccc(C2N(C)c3ccccc3N2C)cc1 [MMV075490]
inhibition at 50 µM [1]: 88% | inhibition at 50 µM [2]: 89.5% | inhibition at 50 µM [3, 4]: 103% | inhibition at 50 µM [3, 5]: 102%

CCOc1cc(Br)c(C(C)NC(=O)c2cccc(OC)c2)cc1OCC (stereo not drawn) [MMV665796]
inhibition at 50 µM [1]: 88.4% | inhibition at 50 µM [2]: 96.9% | inhibition at 50 µM [3, 4]: 103% | inhibition at 50 µM [3, 5]: 104%

FC(F)(F)c1cccc(Nc2nc(-c3ccccc3)nc3ncccc23)c1 [MMV665798]
inhibition at 50 µM [1]: 95.3% | inhibition at 50 µM [2]: 98.3% | inhibition at 50 µM [3, 4]: 103% | inhibition at 50 µM [3, 5]: 104%

CCOc1cc(Cl)c(C(C)NC(=O)c2cccc(OC)c2)cc1OCC (stereo not drawn) [MMV665803]
inhibition at 50 µM [1]: 86.5% | inhibition at 50 µM [2]: 97.7% | inhibition at 50 µM [3, 4]: 104% | inhibition at 50 µM [3, 5]: 106%

CCOc1ccc(-c2nonc2NC(=O)c2cccc(C)c2)cc1OCC [MMV665805]
inhibition at 50 µM [1]: 0.576% | inhibition at 50 µM [2]: 6.54% | inhibition at 50 µM [3, 4]: 44% | inhibition at 50 µM [3, 5]: 72%

Cc1c(C)n(CC(O)CNC2CCCCC2C)c2ccccc12 (stereo not drawn) [MMV665806]
inhibition at 50 µM [1]: 31.3% | inhibition at 50 µM [2]: 47.6% | inhibition at 50 µM [3, 4]: 90% | inhibition at 50 µM [3, 5]: 92%

COc1ccc2c(=O)cc(C(Cl)(Cl)Cl)oc2c1 [MMV665820]
inhibition at 50 µM [1]: 96.4% | inhibition at 50 µM [2]: 98.1% | inhibition at 50 µM [3, 4]: 103% | inhibition at 50 µM [3, 5]: 102%

COc1cccc(NC(=O)Cn2c(C)c(C#N)c3ccccc32)c1 [MMV665826]
inhibition at 50 µM [1]: 49.1% | inhibition at 50 µM [2]: 77.8% | inhibition at 50 µM [3, 4]: 102% | inhibition at 50 µM [3, 5]: 101%

Oc1ccc(Cl)cc1CNc1nc2ccccc2[nH]1 [MMV665850]
inhibition at 50 µM [1]: 98.1% | inhibition at 50 µM [2]: 98.7% | inhibition at 50 µM [3, 4]: 103% | inhibition at 50 µM [3, 5]: 104%

CCOc1ccc(-c2nc(NC(=O)c3cccc(S(C)(=O)=O)c3)sc2C)cc1 [MMV665913]
inhibition at 50 µM [1]: 60.5% | inhibition at 50 µM [2]: 62.9% | inhibition at 50 µM [3, 4]: 95% | inhibition at 50 µM [3, 5]: 98%

COc1ccccc1N1CCN(C(CNS(=O)(=O)c2ccc(Cl)cc2)c2cccnc2)CC1 (stereo not drawn) [MMV665914]
inhibition at 50 µM [1]: 49.3% | inhibition at 50 µM [2]: 59.7% | inhibition at 50 µM [3, 4]: 96% | inhibition at 50 µM [3, 5]: 96%

COc1ccc(-c2nc(NC(=O)CS(=O)(=O)c3ccc(F)cc3)sc2C)cc1 [MMV665915]
inhibition at 50 µM [1]: 92.4% | inhibition at 50 µM [2]: 95.2% | inhibition at 50 µM [3, 4]: 101% | inhibition at 50 µM [3, 5]: 100%

O=C(Nc1ccc(Cl)cc1)N1CCN(c2ccc3nncn3n2)CC1 [MMV665917]
inhibition at 50 µM [1]: 38.3% | inhibition at 50 µM [2]: 8.42% | inhibition at 50 µM [3, 4]: 60% | inhibition at 50 µM [3, 5]: 62%

O=C(CSc1ccc2nnc(-c3cccc(F)c3)n2n1)Nc1ccc2c(c1)OCO2 [MMV665918]
inhibition at 50 µM [1]: -2.83% | inhibition at 50 µM [2]: 0.859% | inhibition at 50 µM [3, 4]: -43% | inhibition at 50 µM [3, 5]: -48%
